Assay results taken from ChEMBL document CHEMBL5620353, “Novel antifungal triazoles with alkynyl-methoxyl side chains: Design, synthesis, and biological activity evaluation” (Eur J Med Chem, 2023).

How the values were obtained:
[1] = system: Saccharomyces cerevisiae; test: Antifungal activity against recombinant Saccharomyces cerevisiae Y525 overexpressing CaMdr1 assessed as inhibition of fungal growth incubated for 48 hrs by microbroth dilution method; type: functional
[2] = system: Saccharomyces cerevisiae; test: Antifungal activity against recombinant Saccharomyces cerevisiae Y570 overexpressing CaCdr1 assessed as inhibition of fungal growth incubated for 48 hrs by microbroth dilution method; type: functional
[3] = system: Saccharomyces cerevisiae; test: Antifungal activity against recombinant Saccharomyces cerevisiae Y2411 overexpressing ScErg11 assessed as inhibition of fungal growth incubated for 48 hrs by microbroth dilution method; type: functional
[4] = system: Saccharomyces cerevisiae; test: Antifungal activity against recombinant Saccharomyces cerevisiae Y2300 overexpressing ScErg11 assessed as inhibition of fungal growth incubated for 48 hrs by microbroth dilution method; type: functional
[5] = system: Saccharomyces cerevisiae; test: Antifungal activity against recombinant Saccharomyces cerevisiae Y2301 overexpressing ScErg11 Y140F assessed as inhibition of fungal growth incubated for 48 hrs by microbroth dilution method; type: functional
[6] = system: Saccharomyces cerevisiae; test: Antifungal activity against recombinant Saccharomyces cerevisiae Y2513 overexpressing ScErg11 Y140H assessed as inhibition of fungal growth incubated for 48 hrs by microbroth dilution method; type: functional
[7] = system: Saccharomyces cerevisiae; test: Antifungal activity against recombinant Saccharomyces cerevisiae Y2374 overexpressing CgErg11 assessed as inhibition of fungal growth incubated for 48 hrs by microbroth dilution method; type: functional
[8] = system: Saccharomyces cerevisiae; test: Antifungal activity against recombinant Saccharomyces cerevisiae Y2462 overexpressing ScErg11 ScNcp1 assessed as inhibition of fungal growth incubated for 48 hrs by microbroth dilution method; type: functional
[9] = system: Saccharomyces cerevisiae; test: Antifungal activity against recombinant Saccharomyces cerevisiae Y2459 overexpressing CaErg11 CaCpr assessed as inhibition of fungal growth incubated for 48 hrs by microbroth dilution method; type: functional
[10] = system: Saccharomyces cerevisiae; test: Antifungal activity against recombinant Saccharomyces cerevisiae Y2721 overexpressing CpErg11 CpCpr assessed as inhibition of fungal growth incubated for 48 hrs by microbroth dilution method; type: functional
[11] = system: Saccharomyces cerevisiae; test: Antifungal activity against recombinant Saccharomyces cerevisiae Y2716 overexpressing CpErg11 Y132F CpCpr assessed as inhibition of fungal growth incubated for 48 hrs by microbroth dilution method; type: functional
[12] = system: Saccharomyces cerevisiae; test: Resistance index, ratio of MIC for recombinant Saccharomyces cerevisiae Y525 overexpressing CaMdr1 to MIC for recombinant Saccharomyces cerevisiae Y2411 overexpressing ScErg11; type: functional
[13] = Metabolic stability in human liver microsomes assessed as half life at 1 uM preincubated for 10 mins followed by NADPH addition and measured upto 60 mins by LC-MS/MS analysis; type: ADME, Microsome; details: time < 70 min
[14] = Metabolic stability in human liver microsomes assessed as intrinsic clearance at 1 uM preincubated for 10 mins followed by NADPH addition and measured upto 60 mins by LC-MS/MS analysis; type: ADME, Microsome; details: time < 70 min, read-out: CLH
[15] = Cytotoxicity against HUVEC cells assessed as cell survival at <16 ug/ml incubated for 24 hrs by CCK-8 assay relative to control; type: toxicity, cell-based; details: human, dose < 16 µg/ml, read-out: Survival
[16] = Cytotoxicity against HUVEC cells assessed as cell survival at 128 ug/ml incubated for 24 hrs by CCK-8 assay relative to control; type: toxicity, cell-based; details: human, at 128 µg/mL, read-out: Survival
[17] = Hemolytic activity in rabbit RBC at 32 ug/ml incubated for 1 hr by absorbance based analysis; type: toxicity, cell-based, Oryctolagus cuniculus, Erythrocyte; details: rabbit red blood cells, at 32 µg/mL, read-out: Activity

C[C@@H](c1ncncc1F)[C@](O)(Cn1cncn1)c1ccc(F)cc1F [VORICONAZOLE]
MIC [1]: 0.5 µg/mL | MIC [2]: 8 µg/mL | MIC [3]: 0.008 µg/mL | MIC [4]: 0.031 µg/mL | MIC [5]: 0.031 µg/mL | MIC [6]: 0.031 µg/mL | MIC [7]: 0.031 µg/mL | MIC [8]: 0.063 µg/mL | MIC [9]: 0.016 µg/mL | MIC [10]: 0.063 µg/mL | MIC [11]: 0.25 µg/mL | Ratio [12]: 64

Cc1ncc2n1-c1ccc(Cl)cc1C(c1ccccc1F)=NC2 [MIDAZOLAM]
half-life at 1 µM [13]: 4.67 min | microsomal CLint at 1 µM [14]: 297 µL/min/mg

C[C@@H]1[C@H](O)[C@@H](C)/C=C/C=C/C=C/C=C/C=C/C=C/C=C/[C@H](O[C@@H]2O[C@H](C)[C@@H](O)[C@H](N)[C@@H]2O)C[C@@H]2O[C@](O)(C[C@@H](O)C[C@@H](O)[C@H](O)CC[C@@H](O)C[C@@H](O)CC(=O)O[C@H]1C)C[C@H](O)[C@H]2C(=O)O [AMPHOTERICIN B]
viability at 24 h [15]: 50% | viability at 24 h, 128 ug/ml [16]: 26.1% | hemolysis at 1 h, 32 ug/ml [17]: > 50%
